Results from patent US10227331B2 (priority 2015, dated 2019).
Read-outs that look alike come from different tables or passages of the source.

Columns and labels:
[1] = tested on: Serratia marcescens expressing IMP-1 (CL5741); assay type: cell-based; conditions: with imipenem 1 μg/ml, 95% inhibition of bacterial growth; for Serratia marcescens MITC95: IMP-1 (CL5741)
How it was run: (§1)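 Colonies from overnight 35 °C blood-agar cultures were suspended in saline, diluted 1:100 into 1.1× CAMHB and exposed to test compound with or without imipenem at 1 μg/ml. After 22–24 h at 35 °C, absorbance was read to find the concentration restoring imipenem susceptibility.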

[2] = tested on: Escherichia coli expressing NDM-1 (CLB30005, CLB30016); assay type: cell-based; conditions: with imipenem 1 μg/ml, 95% inhibition of bacterial growth; for Escherichia coli MITC95: NDM-1 (CLB30016)
How it was run: as §1

[3] = tested on: Klebsiella pneumoniae expressing VIM-1 (IHMA599644); assay type: cell-based; conditions: with imipenem 1 μg/ml, 95% inhibition of bacterial growth; for Klebsiella pneumoniae MITC95: VIM-1 (IHMA599644)
How it was run: as §1

[4] = tested on: P. aeruginosa expressing IMP-1, efflux− (MB9799); assay: Efflux: concentration of MBL inhibitor which restores susceptibility to imipenem; assay type: cell-based, Pseudomonas aeruginosa; conditions: imipenem at 2 μg/mL, in the presence of a class A, C, D serine β-lactamase inhibitor closely related to relebactam
Excerpt: (§2) The strain background is Pseudomonas aeruginosa PAO1.

[5] = tested on: P. aeruginosa expressing IMP-1, efflux+ (MB9798); assay type: cell-based, Pseudomonas aeruginosa; conditions: for P. aeruginosa expressing IMP-1, efflux+ (MB9798) MITC95: imipenem at 2 μg/mL, in the presence of a class A, C, D serine β-lactamase inhibitor closely related to relebactam; for Efflux ratio: ratio MITC95 PA_9798/MITC95 PA_9799
Excerpt: as §2

IMP-1 = IMP-1 (Serratia marcescens, UniProt P52699); assay: biochemical; assay type: biochemical
How it was run: (§3)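 Two-hour, 25° C incubation of enzyme with inhibitor and CCF2-FA (7-hydroxycoumarin–cephalosporin–fluorescein). Fluorescence read-out; IC50 via 4-parameter fit.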

NDM-1 = NDM-1 (Klebsiella pneumoniae, UniProt C7C422); assay: biochemical; assay type: biochemical; conditions: CCF2-FA substrate, 2 hours at 25° C; read-out: NDM-1 IC50
How it was run: as §3

VIM-1 = VIM-1 (Pseudomonas aeruginosa (strain ATCC 15692 / DSM 22644 / CIP 104116 / JCM 14847 / LMG 12228 / 1C / PRS 101 / PAO1), UniProt A0A0F7KYQ8); assay: biochemical; conditions: CCF2-FA substrate, 2 hours at 25° C
How it was run: as §3

[6] = CCF2-FA substrate, 2 hours at 25° C, read-out: IMP-1 IC50

IMP-1, sequence (P52699 whole entry, looked up, species assumed): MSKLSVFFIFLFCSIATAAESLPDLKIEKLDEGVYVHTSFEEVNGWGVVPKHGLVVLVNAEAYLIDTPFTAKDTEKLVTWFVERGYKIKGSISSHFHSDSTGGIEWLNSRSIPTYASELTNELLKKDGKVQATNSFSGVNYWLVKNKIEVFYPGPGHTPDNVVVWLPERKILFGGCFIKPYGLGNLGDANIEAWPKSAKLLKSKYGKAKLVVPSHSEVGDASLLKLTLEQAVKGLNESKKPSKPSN
NDM-1, sequence (C7C422 whole entry, looked up, species assumed): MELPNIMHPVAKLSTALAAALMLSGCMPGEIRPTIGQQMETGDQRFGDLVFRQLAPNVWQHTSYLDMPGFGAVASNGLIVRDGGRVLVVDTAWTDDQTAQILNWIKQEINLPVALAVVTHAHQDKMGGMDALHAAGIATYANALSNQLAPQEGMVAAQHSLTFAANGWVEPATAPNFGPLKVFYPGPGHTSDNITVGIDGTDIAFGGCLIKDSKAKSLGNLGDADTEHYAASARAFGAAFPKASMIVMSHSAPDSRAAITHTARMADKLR

Row | SMILES | Serratia marcescens MITC95 [1] [µM] | Escherichia coli MITC95 [2] [µM] | Klebsiella pneumoniae MITC95 [3] [µM] | P. aeruginosa expressing IMP-1, efflux− (MB9799) MITC95 [4] [µM] | P. aeruginosa expressing IMP-1, efflux+ (MB9798) MITC95 [5] [µM] | Efflux ratio [5] | IC50 (IMP-1) [nM] | IC50 (NDM-1) [nM] | IC50 (VIM-1) [nM] | Serratia marcescens expressing IMP-1 (CL5741) MITC95 [1] [µM] | Escherichia coli expressing NDM-1 (CLB30016) MITC95 [2] [µM] | Klebsiella pneumoniae expressing VIM-1 (IHMA599644) MITC95 [3] [µM] | IC50 (IMP-1; [6]) [nM]
1 | Nc1nc2c(-c3ccc(S(=O)(=O)C4CCNCC4)c(S(N)(=O)=O)c3-c3nn[nH]n3)cccc2s1 [Example 315, 3-(2-aminobenzo[d]thiazol-4-yl)-6-(piperidin-4-ylsulfonyl)-2-(2H-tetrazol-5-yl)benzenesulfonamide] | 1.563 | 1.563 | 3.125 | 0.7813 | 0.7813 | 1.00 | 0.249 | 0.113 | 0.251 |  |  |  | 
2 | NS(=O)(=O)c1c(S(=O)(=O)C2CNC2)ccc(-c2cnc3cc[nH]c3c2)c1-c1nn[nH]n1 [Example 16, 6-(Azetidin-3-ylsulfonyl)-3-(1H-pyrrolo[3,2-b]pyridin-6-yl)-2-(2H-tetrazol-5-yl)benzenesulfonamide] |  |  |  | 1.563 | 6.25 | 4.00 |  | 0.49 | 0.653 | 0.7813 | 0.3906 | 3.125 | 2.37
3 | NCCS(=O)(=O)c1ccc(-c2cccc3ccc(N)nc23)c(-c2nn[nH]n2)c1S(N)(=O)=O [Example 71, 6-(2-aminoethylsulfonyl)-3-(2-aminoquinolin-8-yl)-2-(2H-tetrazol-5-yl)benzenesulfonamide] |  |  |  | 0.7813 | 0.7813 | 1.00 |  | 0.115 | 0.315 | 0.7813 | 0.3906 | 1.563 | 0.129
4 | NS(=O)(=O)c1c(S(=O)(=O)C2CNC2)ccc(-c2ccnc(N3CCNC3=O)c2)c1-c1nnn[nH]1 [Example 343, 6-(Azetidin-3-ylsulfonyl)-3-(2-(2-oxoimidazolidin-1-yl)pyridin-4-yl)-2-(1H-tetrazol-5-yl)benzenesulfonamide] | 3.125 | 3.125 | 6.25 | 1.563 | 25 | 15.99 |  | 0.51 | 0.198 |  |  |  | 1.89
5 | NS(=O)(=O)c1c(S(=O)(=O)C2CNC2)ccc(-c2cccc3ccnn23)c1-c1nnn[nH]1.O=C(O)C(F)(F)F [Example 102, 3-((4-(pyrazolo[1,5-a]pyridin-7-yl)-2-sulfamoyl-3-(1H-tetrazol-5-yl)phenyl)sulfonyl)azetidin-1-ium 2,2,2-trifluoroacetate] |  |  |  | 1.563 | 3.125 | 2.00 |  | 0.407 | 0.457 | 3.125 | 3.125 | 3.125 | 0.909
6 | Nc1nc2c(-c3ccc(S(=O)(=O)CCN4CCOCC4)c(S(N)(=O)=O)c3-c3nn[nH]n3)cccc2s1 [Example 258, 3-(2-Aminobenzo[d]thiazol-4-yl)-6-((2-morpholinoethyl)sulfonyl)-2-(2H-tetrazol-5-yl)benzenesulfonamide] | 12.5 | 25 | 25 | 6.25 | 12.5 | 2.00 | 0.469 | 0.228 | 0.454 |  |  |  | 
7 | NS(=O)(=O)c1c(S(=O)(=O)C2CNC2)ccc(-c2cccc3sc(C(=O)O)nc23)c1-c1nnn[nH]1 [Example 68, 4-(4-(azetidin-3-ylsulfonyl)-3-sulfamoyl-2-(1H-tetrazol-5-yl)phenyl)benzo[d]thiazole-2-carboxylic Acid] |  |  |  | 3.125 | 6.25 | 2.00 |  | 0.0709 | 0.256 | 6.25 | 6.25 | 12.5 | 0.356
8 | COC(=O)CNC(=O)c1nc2c(-c3ccc(S(=O)(=O)C4CNC4)c(S(N)(=O)=O)c3-c3nn[nH]n3)cccc2[nH]1 [Example 256, Methyl (4-(4-(azetidin-3-ylsulfonyl)-3-sulfamoyl-2-(2H-tetrazol-5-yl)phenyl)-1H-benzo[d]imidazole-2-carbonyl)glycinate] | 6.25 | 6.25 | 12.5 | 6.25 | 6.25 | 1.00 |  | 0.108 | 0.35 |  |  |  | 0.999
9 | NC[C@@H](O)CS(=O)(=O)c1ccc(-c2cccc3sc(N)nc23)c(-c2nn[nH]n2)c1S(N)(=O)=O [Example 352, (R)-6-((3-amino-2-hydroxypropyl)sulfonyl)-3-(2-aminobenzo[d]thiazol-4-yl)-2-(2H-tetrazol-5-yl) benzenesulfonamide] | 0.7813 | 0.7813 | 1.563 | 0.7813 | 0.3906 |  |  | 0.0658 | 0.255 |  |  |  | 0.145
10 | NS(=O)(=O)c1c(S(=O)(=O)C2CNC2)ccc(-c2cccc3cccnc23)c1-c1nnn[nH]1.O=C(O)C(F)(F)F [Example 128, 3-((4-(quinolin-8-yl)-2-sulfamoyl-3-(1H-tetrazol-5-yl)phenyl)sulfonyl)azetidin-1-ium 2,2,2-trifluoroacetate] |  |  |  | 1.563 | 3.125 | 2.00 |  | 0.134 | 0.314 | 3.125 | 1.563 | 3.125 | 0.524
11 | CNc1nc2c(-c3ccc(S(=O)(=O)CCN)c(S(N)(=O)=O)c3-c3nn[nH]n3)cccc2s1 [Example 90, 6-(2-aminoethylsulfonyl)-3-(2-(methylamino)benzo[d]thiazol-4-yl)-2-(2H-tetrazol-5-yl)benzene sulfonamide] |  |  |  | 0.7813 | 1.563 | 2.00 |  | 0.0746 | 0.146 | 1.563 | 0.7813 | 1.563 | 0.0995
